Earlier results in patent EP0225409A1, “Organic amine phosphonic acid complexes for the treatment of calcific tumors” (THE DOW CHEMICAL COMPANY, priority 1985, dated 1987).

Settings: 24 hours after injection

injected dose present in the thyroid: 0.1%
SMILES: NC(c1ccc(O)c([131I])c1)(P(=O)(O)O)P(=O)(O)O [α-amino-(3-iodo-4-hydroxybenzylidene)diphosphonate]
